Like-named read-outs stand apart in the source and are kept apart here.
Columns and labels:
[1] = tested on: MCF-7 (human breast adenocarcinoma) cell line; experiment: MTT cytotoxicity assay, MCF-7; conditions: read-out: IC50 (µM) ± SD MCF-7
Method: (§3) This test is based on MTT cleavage by mitochondrial dehydrogenases from viable cells [50, 51, 52]. […] After incubation, the media were removed, and 40 µL of MTT (2.5 mg mL^−1) was added to each well. Incubation was resumed for an additional 4 h. The purple formazan dye crystals were solubilized with 200 µL DMSO. Absorbance was measured at 590 nm in a Spectra Max Paradigm Multi-Mode microplate reader (Molecular Devices, LLC, San Jose, CA, USA). Relative cell viability was expressed as the mean percentage of viable cells compared to the untreated control cells.
(§4) All experiments were conducted in triplicate and repeated on three different days. All values are reported as mean ± SD. IC50 values were determined by SPSS Inc. probit analysis (IBM Corp., Armonk, NY, USA).

[2] = tested on: HCT-116 (human colorectal carcinoma) cell line; experiment: MTT cytotoxicity assay, HCT-116; conditions: read-out: IC50 (µM) ± SD HCT-116
Method: as §3, §4

EGFR^WT = EGFR^WT (Homo sapiens, UniProt P00533); experiment: EGFR^WT kinase inhibition (HTRF assay); format: biochemical; conditions: ATP 1.65 μM, 30 min, room temperature, read-out: IC50 (Mean ± SEM) (µM) EGFR^WT
EGFR^WT, sequence (P00533 25-1210): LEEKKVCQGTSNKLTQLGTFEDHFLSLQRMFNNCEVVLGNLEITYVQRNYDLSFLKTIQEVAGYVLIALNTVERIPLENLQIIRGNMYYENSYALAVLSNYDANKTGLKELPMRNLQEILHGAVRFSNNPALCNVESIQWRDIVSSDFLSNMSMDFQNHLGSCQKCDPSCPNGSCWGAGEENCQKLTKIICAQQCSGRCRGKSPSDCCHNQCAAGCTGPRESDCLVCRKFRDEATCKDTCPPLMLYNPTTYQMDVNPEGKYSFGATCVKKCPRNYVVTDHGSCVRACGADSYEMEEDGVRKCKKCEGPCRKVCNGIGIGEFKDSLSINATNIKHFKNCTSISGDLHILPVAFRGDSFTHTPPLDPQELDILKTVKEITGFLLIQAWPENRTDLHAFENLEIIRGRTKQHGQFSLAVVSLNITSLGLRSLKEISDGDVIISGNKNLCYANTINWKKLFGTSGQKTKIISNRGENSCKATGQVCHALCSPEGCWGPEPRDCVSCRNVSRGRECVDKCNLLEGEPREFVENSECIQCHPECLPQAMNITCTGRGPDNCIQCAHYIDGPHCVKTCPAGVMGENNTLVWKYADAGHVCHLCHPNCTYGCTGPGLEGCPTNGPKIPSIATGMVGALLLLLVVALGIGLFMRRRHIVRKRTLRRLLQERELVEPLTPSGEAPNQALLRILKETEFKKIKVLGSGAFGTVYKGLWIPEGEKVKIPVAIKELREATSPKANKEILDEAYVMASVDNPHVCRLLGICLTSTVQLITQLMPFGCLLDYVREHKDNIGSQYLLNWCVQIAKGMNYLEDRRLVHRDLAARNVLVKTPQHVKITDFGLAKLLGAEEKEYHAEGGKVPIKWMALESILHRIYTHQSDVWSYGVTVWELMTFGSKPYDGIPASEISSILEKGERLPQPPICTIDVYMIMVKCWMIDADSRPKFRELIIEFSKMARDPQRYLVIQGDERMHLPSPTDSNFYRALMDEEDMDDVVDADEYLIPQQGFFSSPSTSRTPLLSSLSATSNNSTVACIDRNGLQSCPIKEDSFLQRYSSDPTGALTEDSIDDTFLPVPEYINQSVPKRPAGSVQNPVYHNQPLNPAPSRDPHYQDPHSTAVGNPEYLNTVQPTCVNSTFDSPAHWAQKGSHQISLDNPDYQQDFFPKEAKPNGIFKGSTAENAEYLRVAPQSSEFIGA
Method: (§1) A homogeneous time-resolved fluorescence (HTRF) assay was applied in this test (Sigma). […] The assay was conducted for 30 min at room temperature. The reaction was stopped by the addition of detection reagents that contained EDTA. […] Three independent experiments were performed for each concentration.

EGFR^T790M = EGFR^T790M (Homo sapiens, UniProt P00533, T790M); experiment: EGFR^T790M kinase inhibition (HTRF assay); format: biochemical; conditions: ATP 1.65 μM, 30 min, room temperature, read-out: IC50 (Mean ± SEM) (µM) EGFR^T790M
EGFR^T790M, sequence (P00533 25-1210 T790M): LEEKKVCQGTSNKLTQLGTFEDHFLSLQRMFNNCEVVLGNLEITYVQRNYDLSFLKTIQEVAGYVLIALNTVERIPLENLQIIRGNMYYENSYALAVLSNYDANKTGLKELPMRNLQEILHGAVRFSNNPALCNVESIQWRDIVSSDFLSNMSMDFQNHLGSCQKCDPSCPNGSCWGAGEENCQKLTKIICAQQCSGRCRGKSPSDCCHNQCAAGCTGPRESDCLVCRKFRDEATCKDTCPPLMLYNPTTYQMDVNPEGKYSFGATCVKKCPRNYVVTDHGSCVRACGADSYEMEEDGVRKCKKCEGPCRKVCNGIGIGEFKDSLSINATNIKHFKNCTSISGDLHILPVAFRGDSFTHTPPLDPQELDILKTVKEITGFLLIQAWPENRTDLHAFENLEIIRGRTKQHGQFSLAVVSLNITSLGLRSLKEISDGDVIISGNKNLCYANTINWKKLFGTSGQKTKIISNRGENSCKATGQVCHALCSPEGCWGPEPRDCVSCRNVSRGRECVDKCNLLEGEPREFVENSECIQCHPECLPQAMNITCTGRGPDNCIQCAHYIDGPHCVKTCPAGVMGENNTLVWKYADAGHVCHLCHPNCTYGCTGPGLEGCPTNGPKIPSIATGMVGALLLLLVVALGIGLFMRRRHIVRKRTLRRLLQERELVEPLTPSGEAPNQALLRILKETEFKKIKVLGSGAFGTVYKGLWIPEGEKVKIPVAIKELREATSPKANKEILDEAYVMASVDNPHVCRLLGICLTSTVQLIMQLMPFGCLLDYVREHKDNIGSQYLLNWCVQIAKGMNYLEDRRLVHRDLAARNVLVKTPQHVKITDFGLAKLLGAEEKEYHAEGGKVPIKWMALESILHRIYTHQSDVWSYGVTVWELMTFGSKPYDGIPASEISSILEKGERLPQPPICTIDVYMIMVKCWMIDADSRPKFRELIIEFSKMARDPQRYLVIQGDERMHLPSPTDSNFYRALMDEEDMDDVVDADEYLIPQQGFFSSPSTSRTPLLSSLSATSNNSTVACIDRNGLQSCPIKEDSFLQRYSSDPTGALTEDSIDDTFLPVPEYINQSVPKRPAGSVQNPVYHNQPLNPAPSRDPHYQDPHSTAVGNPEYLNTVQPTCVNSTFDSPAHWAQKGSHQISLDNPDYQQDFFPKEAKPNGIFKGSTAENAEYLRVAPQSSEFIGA
Method: as §1

HER-2 = HER-2 (Homo sapiens, UniProt P04626); experiment: HER-2 kinase inhibition (HTRF assay); format: biochemical; conditions: ATP 1.65 μM, 30 min, room temperature, read-out: IC50 (Mean ± SEM) (µM) HER-2 (converted)
HER-2, sequence (P04626 23-1255): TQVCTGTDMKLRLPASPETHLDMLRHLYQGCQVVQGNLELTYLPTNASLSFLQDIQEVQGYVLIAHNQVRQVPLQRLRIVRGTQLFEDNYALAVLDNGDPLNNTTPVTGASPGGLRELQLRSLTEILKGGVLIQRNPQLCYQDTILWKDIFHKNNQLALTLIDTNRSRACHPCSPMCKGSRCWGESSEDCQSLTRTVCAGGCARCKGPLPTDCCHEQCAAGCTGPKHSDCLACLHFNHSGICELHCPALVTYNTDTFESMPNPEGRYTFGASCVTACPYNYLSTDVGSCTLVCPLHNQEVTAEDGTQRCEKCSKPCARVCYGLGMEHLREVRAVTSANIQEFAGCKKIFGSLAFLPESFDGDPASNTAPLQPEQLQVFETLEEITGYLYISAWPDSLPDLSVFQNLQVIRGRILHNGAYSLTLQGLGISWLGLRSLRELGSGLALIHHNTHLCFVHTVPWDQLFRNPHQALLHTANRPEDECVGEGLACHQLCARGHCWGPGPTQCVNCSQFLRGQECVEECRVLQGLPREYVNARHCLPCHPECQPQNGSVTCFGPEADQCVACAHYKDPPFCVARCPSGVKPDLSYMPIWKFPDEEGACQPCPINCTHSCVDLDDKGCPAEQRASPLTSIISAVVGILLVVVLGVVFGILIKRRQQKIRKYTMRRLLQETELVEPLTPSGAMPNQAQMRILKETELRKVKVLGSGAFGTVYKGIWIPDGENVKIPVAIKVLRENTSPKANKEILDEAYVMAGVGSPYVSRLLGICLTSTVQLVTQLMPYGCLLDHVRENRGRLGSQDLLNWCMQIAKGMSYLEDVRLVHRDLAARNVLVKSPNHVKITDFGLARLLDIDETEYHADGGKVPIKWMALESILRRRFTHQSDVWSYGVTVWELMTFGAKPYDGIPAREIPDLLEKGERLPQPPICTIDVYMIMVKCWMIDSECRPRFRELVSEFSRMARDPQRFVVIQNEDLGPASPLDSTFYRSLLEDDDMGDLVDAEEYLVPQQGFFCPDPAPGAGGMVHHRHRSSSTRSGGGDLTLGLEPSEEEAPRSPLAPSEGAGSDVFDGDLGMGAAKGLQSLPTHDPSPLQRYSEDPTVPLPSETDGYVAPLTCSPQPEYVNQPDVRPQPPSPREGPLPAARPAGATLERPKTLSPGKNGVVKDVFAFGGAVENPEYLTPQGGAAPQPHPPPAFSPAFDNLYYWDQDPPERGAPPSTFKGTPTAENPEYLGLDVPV
Method: as §1

MCF-7 cells [3] = experiment: Annexin V/PI apoptosis detection by flow cytometry; format: cell-based, human; conditions: MCF-7, 24 h, at IC50 concentration (7: 0.5 μM; 15: 0.6 μM); for Apoptosis Late: control 0.28%; for Apoptosis Early: control 0.46%; for Necrosis: control 1.25%; for Apoptosis Total: control 1.99
Method: The proportion of late apoptosis obtained with compounds 7 and 15 was higher than that of the early phase, leading to the induction of apoptosis and confirming the effectiveness of these derivatives in cancer therapy.
(§2) Apoptosis investigation and cell cycle analysis were performed by flow cytometry. MCF-7 cells were seeded at 8 × 10^4 and incubated at 37 °C in 5% CO2 overnight. After treatment with the tested compounds 7 and 15 for 24 h, cell pellets were collected and centrifuged (300 g, 5 min). For cell cycle analysis, cell pellets were fixed with 70% ethanol on ice for 15 min and collected again. The pellets were incubated with propidium iodide (PI) staining solution at room temperature for 1 h and analyzed with a Gallios flow cytometer (Beckman Coulter, Brea, CA, USA). Apoptosis detection was carried out by the FITC AnnexinV/PI commercial kit (Becton Dickenson, Franklin Lakes, NJ, USA) following the manufacturer’s protocol. The samples were analyzed by fluorescence-activated cell sorting (FACS) with a Gallios flow cytometer (Beckman Coulter, Brea, CA, USA) within 1 h after staining. Data were analyzed using Kaluza v 1.2 (Beckman Coulter).

MCF-7 cells [4] = experiment: Cell cycle analysis (PI staining, flow cytometry); format: cell-based, human; conditions: MCF-7, 24 h treatment; for cell accumulation at sub-G1 phase (%pre G): untreated 1.99%; for cell accumulation at S phase (%DIP S): untreated 33.85%
Method: Moreover, the cessation of cell division at cell cycle checkpoints is considered one of the main roles of anticancer therapeutics.
as §2

[5] = MTT assay, 48 h incubation, mean ± SD

melting point	SMILES	IC50 ([1]; Homo sapiens, MCF7, 48 h)	IC50 ([2]; Homo sapiens, HCT-116, 48 h)	other results
	CCn1cc(/C=N\c2nnc(S)s2)c2ccccc21 [Compound 1]	18.1 ± 0.2 µM	46.9 ± 0.5 µM	
101 to 102 °C	CCn1cc(C=Nc2nnc(SCCN=[N+]=[N-])s2)c2ccccc21 [Compound 3, N-(5-((2-Azidoethyl)thio)-1,3,4-thiadiazol-2-yl)-1-(1-ethyl-1H-indol-3-yl)methanimine]	1.1 ± 0.1 µM	30.8 ± 0.4 µM	
131 to 132 °C	CCn1cc(C=Nc2nnc(SCCn3cc(CO[C@@H]4O[C@H](COC(C)=O)[C@@H](OC(C)=O)[C@H](OC(C)=O)[C@H]4OC(C)=O)nn3)s2)c2ccccc21 [Compound 5, 1-(1-Ethyl-1H-indol-3-yl)-N-(5-((2-(4-({[2,3,4,6-tetra-O-acetyl-β-D-glucopyranosyl]oxy}methyl)-1H-1,2,3-triazol-1-yl)ethyl)thio)-1,3,4-thiadiazol-2-yl)methanimine]	13.9 ± 0.2 µM	22.6 ± 0.2 µM	
136 to 138 °C	CCn1cc(C=Nc2nnc(SCCn3cc(CO[C@@H]4OC[C@@H](OC(C)=O)[C@H](OC(C)=O)[C@H]4OC(C)=O)nn3)s2)c2ccccc21 [Compound 6, 1-(1-Ethyl-1H-indol-3-yl)-N-(5-((2-(4-({[2,3,4-tri-O-acetyl-β-D-xylopyranos-yl]oxy}methyl)-1H-1,2,3-triazol-1-yl)ethyl)thio)-1,3,4-thiadiazol-2-yl)methanimine]	10.8 ± 1.5 µM	20.8 ± 0.2 µM	
210 to 213 °C	CCn1cc(C=Nc2nnc(SCCn3cc(CO[C@@H]4O[C@H](CO)[C@@H](O)[C@H](O)[C@H]4O)nn3)s2)c2ccccc21 [Compound 7, 1-(1-Ethyl-1H-indol-3-yl)-N-(5-((2-(4-({[β-D-glucopyranosyl]oxy}methyl)-1H-1,2,3-triazol-1-yl)ethyl)thio)-1,3,4-thiadiazol-2-yl)methanimine]	0.5 µM	15.5 ± 0.2 µM	IC50 (EGFR^WT): 0.3 ± 0.01 µM; IC50 (EGFR^T790M): 1.12 ± 0.55 µM; IC50 (HER-2): 2.25 ± 0.3 µM; Apoptosis Late (MCF-7 cells [3]): 18.81%; Apoptosis Early (MCF-7 cells [3]): 4.39%; Necrosis (MCF-7 cells [3]): 11.41%; Apoptosis Total (MCF-7 cells [3]): 34.61%; cell accumulation at sub-G1 phase (%pre G) (MCF-7 cells [4]): 34.61%; cell accumulation at S phase (%DIP S) (MCF-7 cells [4]): 43.51%
203 to 204 °C	CCn1cc(C=Nc2nnc(SCCn3cc(CO[C@@H]4OC[C@@H](O)[C@H](O)[C@H]4O)nn3)s2)c2ccccc21 [Compound 8, 1-(1-Ethyl-1H-indol-3-yl)-N-(5-((2-(4-({[β-D-Xylopyranosyl]oxy}methyl)-1H-1,2,3-triazol-1-yl)ethyl)thio)-1,3,4-thiadiazol-2-yl)methanimine]	4.2 ± 0.1 µM	4.6 ± 0.1 µM	IC50 (EGFR^WT): 0.38 ± 0.05 µM; IC50 (EGFR^T790M): 1.95 ± 0.02 µM; IC50 (HER-2): 2.77 ± 0.13 µM
	Cc1ccc(NC(=O)CN=[N+]=[N-])cc1 [Compound 9a]	24.1 ± 0.3 µM	42.3 ± 0.6 µM	
	[N-]=[N+]=NCC(=O)Nc1ccc(F)cc1 [Compound 9b]	26.4 ± 0.3 µM	33.3 ± 0.4 µM	
95 to 96 °C	CC(=O)O[C@@H]1[C@@H](OC(C)=O)[C@H](OCc2cn(CC(=O)Nc3ccc(C)cc3)nn2)OC[C@H]1OC(C)=O [Compound 11, 2-(4-({[2,3,4-Tri-O-acetyl-β-D-xylopyranosyl]oxy}methyl)-1H-1,2,3-triazol-1-yl)-N-(p-tolyl)acetamide]	0.8 µM	15.4 ± 0.2 µM	IC50 (EGFR^WT): 6.45 ± 0.1 µM; IC50 (EGFR^T790M): 11.8 ± 0.05 µM; IC50 (HER-2): 8.6 ± 0.2 µM
98 to 99 °C	CC(=O)OC[C@H]1O[C@@H](OCc2cn(CC(=O)Nc3ccc(C)cc3)nn2)[C@H](OC(C)=O)[C@@H](OC(C)=O)[C@H]1OC(C)=O [Compound 12, 2-(4-({[2,3,4,6-Tetra-O-acetyl-β-D-galactopyranosyl]oxy}methyl)-1H-1,2,3-triazol-1-yl)-N-(p-tolyl)acetamide]	5.7 ± 0.1 µM	2.2 ± 0.1 µM	IC50 (EGFR^WT): 12.7 ± 0.15 µM; IC50 (EGFR^T790M): 15.2 ± 0.2 µM; IC50 (HER-2): 18.4 µM
142 to 144 °C	CC(=O)O[C@@H]1[C@@H](OC(C)=O)[C@H](OCc2cn(CC(=O)Nc3ccc(F)cc3)nn2)OC[C@H]1OC(C)=O [Compound 13, 2-(4-({[2,3,4-Tri-O-acetyl-β-D-xylopyranosyl]oxy}methyl)-1H-1,2,3-triazol-1-yl)-N-(4-fluorophenyl)acetamide]	34.4 ± 0.4 µM	38.2 ± 0.5 µM	
	CC(=O)OC[C@H]1O[C@@H](OCc2cn(CC(=O)Nc3ccc(F)cc3)nn2)[C@H](OC(C)=O)[C@@H](OC(C)=O)[C@H]1OC(C)=O [Compound 14, 2-(4-({[2,3,4,6-Tetra-O-acetyl-β-D-galactopyranosyl]oxy}methyl)-1H-1,2,3-triazol-1-yl)-N-(4-fluorophenyl)acetamide]	35.3 ± 0.3 µM	33.8 ± 0.3 µM	
193 to 194 °C	Cc1ccc(NC(=O)Cn2cc(CO[C@@H]3OC[C@@H](O)[C@H](O)[C@H]3O)nn2)cc1 [Compound 15, 2-(4-({[β-D-Xylopyranosyl]oxy}methyl)-1H-1,2,3-triazol-1-yl)-N-(p-tolyl)acetamide]	0.6 µM	11.4 ± 0.3 µM	IC50 (EGFR^WT): 0.21 ± 0.05 µM; IC50 (EGFR^T790M): 1.5 ± 0.11 µM; IC50 (HER-2): 2.18 ± 0.42 µM; Apoptosis Late (MCF-7 cells [3]): 25.48%; Apoptosis Early (MCF-7 cells [3]): 2.69%; Necrosis (MCF-7 cells [3]): 14.28%; Apoptosis Total (MCF-7 cells [3]): 42.45%; cell accumulation at sub-G1 phase (%pre G) (MCF-7 cells [4]): 42.45%; cell accumulation at S phase (%DIP S) (MCF-7 cells [4]): 52.08%
199 to 200 °C	Cc1ccc(NC(=O)Cn2cc(CO[C@@H]3O[C@H](CO)[C@H](O)[C@H](O)[C@H]3O)nn2)cc1 [Compound 16, 2-(4-({[β-D-Galactopyranosyl]oxy}methyl)-1H-1,2,3-triazol-1-yl)-N-(p-tolyl)acetamide]	20.3 ± 0.9 µM	35.7 ± 0.4 µM	
197 to 198 °C	O=C(Cn1cc(CO[C@@H]2OC[C@@H](O)[C@H](O)[C@H]2O)nn1)Nc1ccc(F)cc1 [Compound 17, 2-(4-({[β-D-Xylopyranosyl]oxy}methyl)-1H-1,2,3-triazol-1-yl)-N-(4-fluorophenyl)acetamide]	30.1 ± 0.4 µM	26.5 ± 0.3 µM	
	O=C(Cn1cc(CO[C@@H]2O[C@H](CO)[C@H](O)[C@H](O)[C@H]2O)nn1)Nc1ccc(F)cc1 [Compound 18, 2-(4-({[β-D-Galactopyranosyl]oxy}methyl)-1H-1,2,3-triazol-1-yl)-N-(4-fluorophenyl)acetamide]	31.6 ± 0.5 µM	28.8 ± 0.1 µM	
	COc1cccc2c1C(=O)c1c(O)c3c(c(O)c1C2=O)C[C@@](O)(C(=O)CO)C[C@@H]3O[C@H]1C[C@H](N)[C@H](O)[C@H](C)O1 [Doxorubicin, reference compound]	9.4 ± 0.1 µM	12.1 ± 0.2 µM	

SMILES	melting point	IC50 ([1]; Homo sapiens, MCF7, 48 h)	IC50 ([2]; Homo sapiens, HCT-116, 48 h)	other results
CCn1cc(C=Nc2nnc(SCCBr)s2)c2ccccc21 [Compound 2, N-(5-((2-Bromoethyl)thio)-1,3,4-thiadiazol-2-yl)-1-(1-ethyl-1H-indol-3-yl)methanimine]	90 to 92 °C			IC50 [1, 5]: 14.1 ± 0.3 µM; IC50 [2, 5]: 52.7 ± 0.6 µM

Source: paper PMC9611297, “Design, Synthesis, Anticancer Activity and Molecular Docking of New 1,2,3-Triazole-Based Glycosides Bearing 1,3,4-Thiadiazolyl, Indolyl and Arylacetamide Scaffolds” (Molecules, 2022)
